Laboratory results taken from patent publication US20260048062A1, “FUSED AMINO PYRIMIDINE COMPOUNDS FOR TREATMENT OF PSYCHOSIS AND PSYCHOTIC DISORDERS” (Ovid Therapeutics Inc., priority 2024, published 2026).

Assays:
[1] = PK study, brain and plasma levels by LC-MS/MS; assay type: in vivo; conditions: mice
[2] = molecular target: T1, KCC2 (Homo sapiens, UniProt Q9H2X9); assay: FLIPR Tl+ flux assay, HEK-293 cells expressing KCC2; assay type: cell-based; conditions: saturating concentration of 3 μM, 1% BCD vehicle
T1 construct: expressed in transfected cells; host or cells: HEK-293 (ATCC CRL-1573), transient transfection
T1 sequence (Q9H2X9 1-1116 isoform Q9H2X9-2): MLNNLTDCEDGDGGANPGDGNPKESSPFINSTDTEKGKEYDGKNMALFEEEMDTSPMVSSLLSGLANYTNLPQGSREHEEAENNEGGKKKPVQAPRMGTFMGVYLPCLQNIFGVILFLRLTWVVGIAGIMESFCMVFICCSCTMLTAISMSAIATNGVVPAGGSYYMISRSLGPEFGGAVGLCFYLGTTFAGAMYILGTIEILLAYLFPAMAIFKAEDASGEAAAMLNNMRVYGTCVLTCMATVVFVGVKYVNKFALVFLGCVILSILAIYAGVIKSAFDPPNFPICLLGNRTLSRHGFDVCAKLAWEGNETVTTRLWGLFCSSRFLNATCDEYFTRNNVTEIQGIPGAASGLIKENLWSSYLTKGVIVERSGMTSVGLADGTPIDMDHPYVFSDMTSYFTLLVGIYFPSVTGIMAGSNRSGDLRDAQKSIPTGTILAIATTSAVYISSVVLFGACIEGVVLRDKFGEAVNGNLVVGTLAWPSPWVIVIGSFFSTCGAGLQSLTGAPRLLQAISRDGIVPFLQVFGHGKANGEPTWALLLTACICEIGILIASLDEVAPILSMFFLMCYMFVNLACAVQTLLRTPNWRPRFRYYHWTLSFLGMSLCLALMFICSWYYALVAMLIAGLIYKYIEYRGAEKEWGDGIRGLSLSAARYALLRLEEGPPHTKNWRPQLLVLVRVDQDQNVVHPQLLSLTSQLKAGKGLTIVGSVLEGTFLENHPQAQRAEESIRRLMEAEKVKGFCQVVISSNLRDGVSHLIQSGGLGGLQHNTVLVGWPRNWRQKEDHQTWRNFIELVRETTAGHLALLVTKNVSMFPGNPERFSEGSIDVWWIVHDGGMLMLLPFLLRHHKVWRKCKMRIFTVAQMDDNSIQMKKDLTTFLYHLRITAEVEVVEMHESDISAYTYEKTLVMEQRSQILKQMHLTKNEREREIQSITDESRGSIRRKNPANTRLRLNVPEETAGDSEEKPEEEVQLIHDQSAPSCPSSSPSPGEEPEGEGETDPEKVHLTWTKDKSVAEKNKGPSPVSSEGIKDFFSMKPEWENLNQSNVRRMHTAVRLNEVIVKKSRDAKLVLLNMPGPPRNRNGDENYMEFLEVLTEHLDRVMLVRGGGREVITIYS
Experimental: A multi-tiered high-throughput screening assay was used, leveraging a proprietary library of 1.3 million small molecule compounds from AstraZeneca (Cambridge, UK) to identify chemical entities capable of activating KCC2. A single point concentration of 30 μM was used to identify potassium flux using an established thallium (TI+) influx FLIPR assay as the primary read out in HEK-293 cells overexpressing KCC2 (Cardarelli et al., Nat. Med. 23, 1394-1396 (2017); Conway et al., J Biol Chem 292, 21253-21263 (2017); Lee et al., 2022, supra).
Cell Culture and biotinylation. […]
FLIPR TI Flux assay. HEK-293 cells were washed with HBSS, and then incubated with loading buffer containing TI sensitive fluorescent dye (https://www.moleculardevices.com), 20 μM bumetanide 20 μM ouabain and 2.5 mM probenecid for 1 h at room temperature (RT) under control conditions or with drugs in the dark using a FlexStation 3 microplate reader (Molecular Devices) and imaged […] for 30 min. Stimulus buffer was added containing 5 mM K^+/0.5 mM Tl^+ and cells were imaged every 1.5 over a 190 second time course The initial rate Tl^+ uptake (Relative Fluorescence Units (RFU) per second) was determined following addition of the stimulus buffer as outlined previously (Conway et al., 2017, supra) (Lee et al., 2022, supra). […]

C[C@@H]1CN(c2nc3c(c(Nc4ccc(C5CCCCC5)cc4)n2)COC3)CCO1 [Compound A, (R)—N-(4-cyclohexylphenyl)-2-(2-methylmorpholino)-5,7-dihydrofuro[3,4-d]pyrimidin-4-amine]
time at which accumulation in the brain was detected ([1]; 50 mg/kg SC): 30 min
time by which accumulation in the brain was evident ([1]; single 25 mg/kg IV bolus): ≤ 30 min
maximum potentiation of KCC2 [2]: 90%
